Read-outs that look alike come from different tables or passages of the source.

The source of these data is patent US11382328B2, “Rapid drug discovery methods for pathogen inactivation” (priority 2019, dated 2022).

This test has as its system E. coli strain W3110. Briefly: Synergy assays: Biolog chemical sensitivity panels with Group IB metal, coefficient of drug interaction (CDI) from relative growth. It counts as cell-based. The note with it: for CDI (coefficient of drug interaction), copper mixed with biocide: Copper (mM) section.
Where [1] appears, read: 1st of 3 copper concentrations (value not shown), 1st of four biocide concentrations.
The mark [2] stands for this setting: 1st of 3 copper concentrations (value not shown), 2nd of four biocide concentrations.
Setting [3] is: 1st of 3 copper concentrations (value not shown), 3rd of four biocide concentrations.
Setting [4] is: 1st of 3 copper concentrations (value not shown), 4th of four biocide concentrations.
Where [5] appears, read: 2nd of 3 copper concentrations (value not shown), 1st of four biocide concentrations.
Setting [6] is: 2nd of 3 copper concentrations (value not shown), 2nd of four biocide concentrations.
The mark [7] stands for this setting: 2nd of 3 copper concentrations (value not shown), 3rd of four biocide concentrations.
The mark [8] stands for this setting: 2nd of 3 copper concentrations (value not shown), 4th of four biocide concentrations.
Setting [9] is: 3rd of 3 copper concentrations (value not shown), 1st of four biocide concentrations.
Setting [10] is: 3rd of 3 copper concentrations (value not shown), 2nd of four biocide concentrations.
Where [11] appears, read: 3rd of 3 copper concentrations (value not shown), 3rd of four biocide concentrations.
Where [12] appears, read: 3rd of 3 copper concentrations (value not shown), 4th of four biocide concentrations.
Where [13] appears, read: Gold section of Table 5, first of three gold concentrations (μM, value not given), biocide concentration 3 of 4.
[14] abbreviates: Gold section of Table 5, second of three gold concentrations (μM, value not given), biocide concentration 3 of 4.
Where [15] appears, read: Gold section of Table 5, second of three gold concentrations (μM, value not given), biocide concentration 4 of 4.
Setting [16] is: Gold section of Table 5, third of three gold concentrations (μM, value not given), biocide concentration 3 of 4.
The mark [17] stands for this setting: Silver 0.5 μM, biocide concentration 4 of 4.
[18] abbreviates: Silver 1.0 μM, biocide concentration 4 of 4.
The mark [19] stands for this setting: Silver 5.0 μM, biocide concentration 4 of 4.
[20] abbreviates: Gold section of Table 5, first of three gold concentrations (μM, value not given), biocide concentration 4 of 4.
[21] abbreviates: Gold section of Table 5, third of three gold concentrations (μM, value not given), biocide concentration 4 of 4.
Setting [22] is: Silver 0.5 μM, 3rd of four biocide concentrations, E. coli.
The mark [23] stands for this setting: Silver 0.5 μM, 4th of four biocide concentrations, E. coli.
Setting [24] is: Silver 1.0 μM, 2nd of four biocide concentrations, E. coli.
The mark [25] stands for this setting: Silver 1.0 μM, 3rd of four biocide concentrations, E. coli.
Setting [26] is: Silver 1.0 μM, 4th of four biocide concentrations, E. coli.
Setting [27] is: Silver 5.0 μM, 3rd of four biocide concentrations, E. coli.
Setting [28] is: Silver 5.0 μM, 4th of four biocide concentrations, E. coli.

On to gentamicin, for which the “CDI (coefficient of drug interaction), copper mixed with biocide” value (shortened to “CDI … with biocide”) under setting [1] came out at 0.89; the “CDI … with biocide” value under setting [2] was 0.87; the “CDI … with biocide” value under setting [3] is given as 0.79; the “CDI … with biocide” value under setting [4] stood at 0.86; the “CDI … with biocide” value under setting [5] was 0.78; the “CDI … with biocide” value under setting [6] was 0.80. The “CDI … with biocide” value reads like this: under setting [7], 0.74; under setting [8], 1.54; under setting [9], 0.61; under setting [10], 0.59; under setting [11], 0.58; under setting [12], 0.61. The “CDI (coefficient of drug interaction)” value runs as follows: (Gold section of Table 5, first of three gold concentrations (μM, value not given), biocide concentration 1 of 4) 0.97; (Gold section of Table 5, first of three gold concentrations (μM, value not given), biocide concentration 2 of 4) 1.00; under setting [13], 0.99; (Gold section of Table 5, second of three gold concentrations (μM, value not given), biocide concentration 1 of 4) 0.97; (Gold section of Table 5, second of three gold concentrations (μM, value not given), biocide concentration 2 of 4) 0.99; under setting [14], 1.00. Besides, the “CDI (coefficient of drug interaction)” value under setting [15] is recorded as 1.00; the “CDI (coefficient of drug interaction)” value (Gold section of Table 5, third of three gold concentrations (μM, value not given), biocide concentration 2 of 4) is recorded as 0.97; the “CDI (coefficient of drug interaction)” value under setting [16] came to 1.00. Besides, the CDI was found to be 0.87 (Silver 0.5 μM, biocide concentration 1 of 4); 0.86 (Silver 0.5 μM, biocide concentration 2 of 4); 0.81 (Silver 0.5 μM, biocide concentration 3 of 4); 0.79 under setting [17]; 0.98 (Silver 1.0 μM, biocide concentration 2 of 4); 0.42 (Silver 1.0 μM, biocide concentration 3 of 4). The CDI reads like this: under setting [18], 0.38; (Silver 5.0 μM, biocide concentration 1 of 4) 1.00; (Silver 5.0 μM, biocide concentration 2 of 4) 0.82; (Silver 5.0 μM, biocide concentration 3 of 4) 0.74; under setting [19], 0.34.

As to `Cc1cc(O)cc(C)c1Cl` [chloroxylenol], the “CDI … with biocide” value runs as follows: under setting [6], “Tox”; under setting [7], “Tox”; under setting [8], “Tox”. Further, the “CDI (coefficient of drug interaction)” value runs as follows: under setting [13], “Tox”; under setting [20], “Tox”; under setting [14], “Tox”; under setting [15], “Tox”; under setting [16], “Tox”; under setting [21], “Tox”. Further, the “CDI (coefficient of drug interaction), silver + biocide” value (“CDI … silver + biocide” for short) is listed as “Tox” under setting [22]; “Tox” under setting [23]; “Tox” under setting [24]; “Tox” under setting [25]; “Tox” under setting [26]; “Tox” (Silver 5.0 μM, 2nd of four biocide concentrations, E. coli). The “CDI … silver + biocide” value is given as “Tox” under setting [27] and “Tox” under setting [28].

For the compound `COc1ccc(CO)cc1OC` [3,4-dimethoxybenzyl alcohol], the “CDI … with biocide” value reads like this: under setting [4], “Tox”; under setting [8], “Tox”; under setting [12], “Tox”. Besides, the “CDI (coefficient of drug interaction)” value under setting [20] is recorded as “Tox”, the “CDI (coefficient of drug interaction)” value under setting [15] was “Tox” and the “CDI (coefficient of drug interaction)” value under setting [21] is on record as “Tox”. For the same compound, the CDI result is “Tox” under setting [17], “Tox” under setting [18] and “Tox” under setting [19].

With `NCC[C@H](O)C(=O)N[C@@H]1C[C@H](N)[C@@H](O[C@H]2O[C@H](CN)[C@@H](O)[C@H](O)[C@H]2O)[C@H](O)[C@H]1O[C@H]1O[C@H](CO)[C@@H](O)[C@H](N)[C@H]1O` [amikacin], the “cell toxicity / growth curves with and without silver” value is listed as “enhanced cell toxicity”.

In the case of acriflavine, the “CDI … with biocide” value runs as follows: under setting [1], 1.00; under setting [2], 1.03; under setting [3], 0.95; under setting [5], 0.88; under setting [6], 0.91; under setting [7], 0.95. For the same compound, the “CDI … with biocide” value runs as follows: under setting [9], 0.89; under setting [10], 0.82; under setting [11], 0.81; under setting [12], 0.78. Further, the “CDI (coefficient of drug interaction)” value is, setting by setting: (Gold 5 μM, biocide concentration 1 of 4, E. coli) 0.92; (Gold 5 μM, biocide concentration 2 of 4, E. coli) 0.94; (Gold 5 μM, biocide concentration 3 of 4, E. coli) 0.94; (Gold 25 μM, biocide concentration 1 of 4, E. coli) 0.96; (Gold 25 μM, biocide concentration 3 of 4, E. coli) 0.96; (Gold 25 μM, biocide concentration 4 of 4, E. coli) 0.87. The “CDI (coefficient of drug interaction)” value is 0.86 (Gold 50 μM, biocide concentration 1 of 4, E. coli); 1.00 (Gold 50 μM, biocide concentration 2 of 4, E. coli); 0.96 (Gold 50 μM, biocide concentration 3 of 4, E. coli); 0.84 (Gold 50 μM, biocide concentration 4 of 4, E. coli). The “CDI … silver + biocide” value reads like this: (Silver 0.5 μM, 1st of four biocide concentrations, E. coli) 0.99; (Silver 0.5 μM, 2nd of four biocide concentrations, E. coli) 1.03; under setting [22], 0.86; under setting [23], 0.73; (Silver 1.0 μM, 1st of four biocide concentrations, E. coli) 0.97; under setting [24], 0.95. Moreover, the “CDI … silver + biocide” value under setting [25] is reported as 0.87; the “CDI … silver + biocide” value under setting [26] amounted to 0.59; the “CDI … silver + biocide” value (Silver 5.0 μM, 1st of four biocide concentrations, E. coli) came to 0.96; the “CDI … silver + biocide” value under setting [27] amounted to 0.54; the “CDI … silver + biocide” value under setting [28] is given as 0.24.

Consider `C[n+]1cc2c3c(ccc2c2ccc4cc5c(cc4c21)OCO5)OCO3` [sanguinarine], for which the “CDI … with biocide” value reads like this: under setting [4], “Tox”; under setting [7], “Tox”; under setting [8], “Tox”; under setting [12], “Tox”. For the same compound, the “CDI (coefficient of drug interaction)” value is, setting by setting: under setting [13], “Tox”; under setting [20], “Tox”; under setting [14], “Tox”; under setting [15], “Tox”; under setting [16], “Tox”; under setting [21], “Tox”. The “CDI … silver + biocide” value under setting [22] is “Tox”; the “CDI … silver + biocide” value under setting [23] is listed as “Tox”; the “CDI … silver + biocide” value under setting [25] was “Tox”; the “CDI … silver + biocide” value under setting [26] is “Tox”; the “CDI … silver + biocide” value under setting [27] was “Tox”; the “CDI … silver + biocide” value under setting [28] is “Tox”.

Regarding hydroxylamine, the “CDI (coefficient of drug interaction)” value is reported as 0.99.
